Data set [1] deals with HCT-116. Description: Antiproliferative activity against human HCT-116 cells assessed as inhibition of cell proliferation incubated for 72 hrs by CCK8 assay. It counts as functional, cell-based. As to conditions: HCT-116, 72 h.
Another data set relates to MDA-MB-231. Description: Antiproliferative activity against human MDA-MB-231 cells assessed as inhibition of cell proliferation incubated for 72 hrs by CCK8 assay. As to conditions: MDA-MB-231, 72 h. It counts as functional, cell-based.
A further data set has as its system A549. Description: Antiproliferative activity against human A549 cells assessed as inhibition of cell proliferation incubated for 72 hrs by CCK8 assay. In kind it is functional, cell-based. The settings on record: A549, 72 h.
Data set [2] is described as follows: Solubility of the compound in double distilled water. In kind it is physicochemical.
Data set [3] addresses DNA topoisomerase 2-alpha (Homo sapiens) (UniProt P11388). Briefly: Inhibition of TOP2 (unknown origin) assessed as formation of short DNA fragments using supercoiled plasmid DNA at 100 uM by ethidium bromide staining based gel.
In data set [4] the test system is HCT-116. Briefly: Antitumor activity against human HCT-116 cells xenografted in BALB/c nude mouse assessed as inhibition of tumor growth at 150 mg/kg, po BID measured by caliper relative to control. In kind it is functional. The settings on record: HCT-116, po, read-out: TGI.
Data set [5] in a line: Half life in mouse liver microsomes. It counts as ADME, Microsome.
In data set [6] the test system is HCT-116. Description: Antitumor activity against human HCT-116 cells xenografted in BALB/c nude mouse assessed as inhibition of tumor growth at 60 mg/kg, po BID administered for 21 days measured by caliper relative to control. It counts as functional. As to conditions: HCT-116, po, 504 h, time 21 day, read-out: TGI.
Data set [7] can be described thus: Toxicity in BALB/c nude mouse xenografted with human A549 cells assessed as morphological changes in kidney at 150 mg/kg, po bid by H&E staining based light microscopic analysis. As to conditions: in vivo. In kind it is organism-based.
The nature of data set [8]: Toxicity in BALB/c nude mouse xenografted with human A549 cells assessed as morphological changes in liver at 150 mg/kg, po bid by H&E staining based light microscopic analysis. In kind it is organism-based. The settings on record: in vivo.
For data set [9], the system named is HCT-116. Description: Antitumor activity against human HCT-116 cells xenografted in BALB/c nude mouse assessed as necrosis at 150 mg/kg, po bid by H&E staining based light microscopic analysis. In kind it is functional, organism-based.
For data set [10], the system named is HCT-116. Description: Antitumor activity against human HCT-116 cells xenografted in BALB/c nude nude mouse assessed as tumor growth inhibition at 16 mg/kg/day, ip QD administered for 16 consecutive days measured by caliper relative to control. As to conditions: HCT-116, ip, 384 h, time 16 day, read-out: TGI. In kind it is functional.
Data set [11] is described as follows: Toxicity in BALB/c nude nude mouse xenografted with human HCT-116 cells assessed as decrease in body weight at 0.5 mg/kg/day, ip QD administered for 16 consecutive days. It counts as organism-based. As to conditions: in vivo, 384 h, time 16 day.
The subject of data set [12] is HCT-116. Description: Antitumor activity against human HCT-116 cells xenografted in BALB/c nude mouse assessed as inhibition of tumor growth at 16 mg/kg, ip QD administered for 21 days measured by caliper. In kind it is functional, organism-based. The settings on record: time 21.0 day.

Values after ≈ are worked out from the molar mass of the structure shown. Active and inactive are the calls of the source. The rule behind the calls is not given here.

Sequence of DNA topoisomerase 2-alpha (Homo sapiens) (P11388 whole entry, the tested form may be a part): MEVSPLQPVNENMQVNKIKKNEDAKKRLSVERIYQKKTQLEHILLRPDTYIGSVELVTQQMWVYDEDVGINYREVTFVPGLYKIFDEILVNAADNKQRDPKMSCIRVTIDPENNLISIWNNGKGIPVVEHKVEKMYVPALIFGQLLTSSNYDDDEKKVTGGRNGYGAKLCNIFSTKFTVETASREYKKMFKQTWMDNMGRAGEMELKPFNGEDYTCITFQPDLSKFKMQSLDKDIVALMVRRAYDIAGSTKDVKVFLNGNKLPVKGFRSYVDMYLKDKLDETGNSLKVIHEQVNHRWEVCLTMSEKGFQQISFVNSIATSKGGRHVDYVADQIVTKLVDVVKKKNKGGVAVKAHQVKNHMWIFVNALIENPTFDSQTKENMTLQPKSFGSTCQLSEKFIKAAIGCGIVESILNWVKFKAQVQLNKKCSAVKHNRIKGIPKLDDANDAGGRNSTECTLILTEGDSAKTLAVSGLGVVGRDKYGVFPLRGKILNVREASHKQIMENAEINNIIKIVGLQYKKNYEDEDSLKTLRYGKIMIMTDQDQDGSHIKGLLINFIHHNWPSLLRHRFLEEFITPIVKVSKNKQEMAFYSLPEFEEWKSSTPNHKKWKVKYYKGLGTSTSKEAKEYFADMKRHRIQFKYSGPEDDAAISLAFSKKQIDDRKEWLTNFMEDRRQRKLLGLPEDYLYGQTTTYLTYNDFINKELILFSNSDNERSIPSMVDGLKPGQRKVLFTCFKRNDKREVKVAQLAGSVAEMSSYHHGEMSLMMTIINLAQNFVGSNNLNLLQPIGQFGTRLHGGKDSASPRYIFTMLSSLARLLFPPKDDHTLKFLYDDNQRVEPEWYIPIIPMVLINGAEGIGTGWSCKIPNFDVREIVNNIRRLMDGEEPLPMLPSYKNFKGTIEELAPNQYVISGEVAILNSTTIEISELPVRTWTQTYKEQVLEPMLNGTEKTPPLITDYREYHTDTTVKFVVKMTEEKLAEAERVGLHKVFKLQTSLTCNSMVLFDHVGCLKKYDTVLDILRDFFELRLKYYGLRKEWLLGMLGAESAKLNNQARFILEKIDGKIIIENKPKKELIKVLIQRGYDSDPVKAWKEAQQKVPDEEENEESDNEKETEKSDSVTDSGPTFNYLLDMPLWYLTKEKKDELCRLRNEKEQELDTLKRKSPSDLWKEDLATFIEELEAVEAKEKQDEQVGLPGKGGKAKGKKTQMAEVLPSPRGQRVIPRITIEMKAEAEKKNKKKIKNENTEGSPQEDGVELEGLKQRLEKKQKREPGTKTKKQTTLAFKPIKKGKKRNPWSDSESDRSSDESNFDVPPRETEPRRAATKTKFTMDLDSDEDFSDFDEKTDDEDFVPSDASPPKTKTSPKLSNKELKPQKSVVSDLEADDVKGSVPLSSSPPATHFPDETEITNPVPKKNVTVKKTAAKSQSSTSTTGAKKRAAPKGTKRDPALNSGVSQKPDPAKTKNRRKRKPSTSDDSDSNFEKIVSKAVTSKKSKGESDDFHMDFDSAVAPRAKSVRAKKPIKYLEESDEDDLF

As for `CN1c2ccccc2C(=O)N2CCc3c([nH]c4ccc(O)cc34)[C@H]21`, the IC50 in the data set with HCT-116 [1] is less than 3 nM; in the data set on MDA-MB-231 it was 94 nM; in the data set with A549, 280 nM. Moreover, the solubility in data set [2] was 11 µg/mL (≈ 34.4 µM). The inhibition result in [3] was “Active”. Besides, in the data set on HCT-116 [4], the inhibition in vivo at 150 mg/kg was 57%. Also, the half-life in data set [5] turned out to be 14.3 min. In addition, in the data set on HCT-116 [6], the inhibition in vivo at 60 mg/kg came out at 24%. The Activity entry in [7] and in [8] was “Non-Toxic” each time. For the same compound, in the data set on HCT-116 [9], the outcome was Active.
Regarding `CN1c2ccccc2C(=O)N2CCc3c([nH]c4ccc(OC(=O)[C@@H]5CCCN5)cc34)C21` (stereo not given in full), the half-maximal inhibitory concentration (IC50) in the data set on HCT-116 [1] came out at 7 nM; in the data set on MDA-MB-231 it was 1150 nM; in the data set on A549, 430 nM. For the same compound, the concentration in solution in data set [2] (solubility) was 30 µg/mL (≈ 72 µM). In [3], the inhibition result was “Active”. For the same compound, the inhibition in vivo at 16 mg/kg/day in the data set with HCT-116 [10] was 55%. Besides, the Activity result in data set [11] was “Toxic”. Also, the outcome in the data set with HCT-116 [12] was inactive. In the data set on HCT-116 [4], the inhibition in vivo at 150 mg/kg amounted to 39%.

The record behind these values is ChEMBL document CHEMBL4837225, “Water-soluble derivatives of evodiamine: Discovery of evodiamine-10-phosphate as an orally active antitumor lead compound” (Eur J Med Chem, 2021).
